Results on 2 molecules are retold here after US11414398B2, “Selective organic cation transporters inhibitors for the treatment of depressive disorders” (priority 2017, dated 2022).

The target of data set [1] is T1, OCT3 (Homo sapiens, UniProt O75751).
T1 sequence (O75751 1-556): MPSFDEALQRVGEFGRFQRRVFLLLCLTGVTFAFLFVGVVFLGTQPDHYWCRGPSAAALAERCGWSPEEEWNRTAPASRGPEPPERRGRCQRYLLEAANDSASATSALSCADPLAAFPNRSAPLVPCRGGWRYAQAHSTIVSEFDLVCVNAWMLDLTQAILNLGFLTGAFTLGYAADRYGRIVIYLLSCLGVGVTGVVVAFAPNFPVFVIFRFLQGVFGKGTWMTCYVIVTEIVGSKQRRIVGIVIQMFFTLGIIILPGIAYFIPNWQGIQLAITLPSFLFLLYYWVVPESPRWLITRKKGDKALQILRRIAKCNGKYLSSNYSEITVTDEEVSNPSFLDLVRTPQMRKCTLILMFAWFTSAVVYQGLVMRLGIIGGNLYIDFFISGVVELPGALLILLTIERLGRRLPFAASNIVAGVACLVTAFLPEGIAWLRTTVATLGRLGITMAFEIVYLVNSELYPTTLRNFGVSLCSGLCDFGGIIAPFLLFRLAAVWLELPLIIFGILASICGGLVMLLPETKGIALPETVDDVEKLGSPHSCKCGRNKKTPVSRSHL
Conditions: for OCT3; cited from earlier work.

Data set [2] relates to α1-adrenoreceptors. Conditions: cited from earlier work.
Data set [3] has as its system α2-adrenoreceptors. Conditions: cited from earlier work.
For data set [4] the following is noted: after injection in rabbits; cited from earlier work.
Data set [5] concerns corticosterone-induced depression model. Put plainly: Coat state, corticosterone-induced depression. It is filed as in vivo, mice. Conditions: both time points; i.p. daily: I-1 0.1 mg/kg/day, fluoxetine 15 mg/kg/day or both. How it is done:
Corticosterone-induced depression. […] The experimental scheme is represented on FIG. 1A. Coat state. The coat state of each animal was assessed weekly as a measure of motivation toward self-care. It was evaluated as the sum of the score of different parts of the body, ranging between 0 for a well-groomed coat and 1 for an unkempt coat for head, neck, dorsal/ventral coat, tail and forepaws/hindpaws (FIG. 1B).

Data set [6] has the same test system. Put plainly: Sucrose preference test, corticosterone-induced depression. It is filed as in vivo, mice. The following applies: i.p. daily: I-1 0.1 mg/kg/day, fluoxetine 15 mg/kg/day or both. How it is done: Corticosterone-induced depression. […] The experimental scheme is represented on FIG. 1A. Sucrose preference test. Singled-house mice were first habituated for 48 h to drink water from two bottles.

For data set [7] the test system is unchanged. Put plainly: Elevated O-maze test, corticosterone-induced depression. The format is in vivo, mice. Conditions: after 21 days; i.p. daily: I-1 0.1 mg/kg/day, fluoxetine 15 mg/kg/day or both. How it is done:
Corticosterone-induced depression. […] The experimental scheme is represented on FIG. 1A. Elevated O-maze test. The elevated O-maze consisted of an annular runway positioned 40 cm above the floor and divided into two opposing 90° closed sectors and two 90° open sectors. The mice were individually placed in the closed sector and their behavior recorded over a 5-min period. The time spent in each sector and the number of sector entries (a sector entry was defined as all four of the paws being placed in a sector) were determined by video tracking (Viewpoint, Lyon, France) (FIGS. 1D and 1E).

For data set [8] the test system is unchanged. Put plainly: Social interaction test, corticosterone-induced depression. The format is in vivo, mice. The following applies: compared to corticosterone. How it is done: (§1) Corticosterone-induced depression. […] The experimental scheme is represented on FIG. 1A. Social interaction test. The social interaction test was performed in a white open-field (42×42 cm) containing an empty wire mesh cage (10×6.5 cm) located at an extremity of the field in a low luminosity environment (25 lux). Each test mouse was allowed to explore the openfield for two consecutive sessions of 2.5 min. During the second session, an unfamiliar mouse was introduced into the cage. Between the two sessions, the test mouse was placed back into its home cage for approximately one minute. The time spent by the test mouse in the interaction zone, defined as an 8-cm-wide region surrounding the mesh cage, was measured in both sessions by video tracking (Viewpoint, Lyon, France) (FIGS. 1G and 1I).

The test system is the same in data set [9]. Put plainly: Open-field test, corticosterone-induced depression. The format is in vivo, mice. The following applies: compared to corticosterone; I-1 0.1 mg/kg/day, fluoxetine 15 mg/kg/day or both, i.p. The method, then:
(§2) Corticosterone-induced depression. To induce a chronic depression-like state, individually housed mice were administered corticosterone ([…]; Sigma-Aldrich) dissolved in 0.45% (wt/vol) hydroxypropyl-b-cyclodextrin (Sigma-Aldrich) as in (Bacq et al., Mol. Psychiatry, 2012, 17, 926-939). […] The mice were tested successively for coat sate, sucrose consumption, elevated O-maze, object location test and social interaction, before antidepressant treatment, and after 10 days and 3 weeks of treatment. The experimental scheme is represented on FIG. 1A.
Open-field test. The open field consisted of a white Plexiglas field (100×100×30 cm) with the center brightly illuminated (500 lux). General locomotor activity in the center and periphery of the open field were scored for 9 min. The time and number of entries in the center zone (60×60 cm) were evaluated as an index of anxiety-related response (FIG. 2B).

Data set [10] in a line: Effect on weight, corticosterone-induced depression. The format is in vivo, mice. Conditions: weight measured daily; I-1 0.1 mg/kg/day, fluoxetine 15 mg/kg/day or both, i.p. The method, then:
Corticosterone-induced depression. […] The experimental scheme is represented on FIG. 1A. Effect on weight. The weight of tested mice was measured daily in the morning (FIG. 2D).

The test system of data set [11] is social defeat model. As to the kind of experiment: Social defeat model, social interaction test. The format is in vivo, mice. Conditions: after 3 weeks of treatment; fluoxetine 17 mg/kg, compound (I-1) 0.1 mg/kg as printed. The method, then:
as §1, with “Social defeat model. For social defeat, 8-week-old C57Bl/6J mice were submitted to social defeat stress for 10 consecutive days as described (Berton et al., Science, 2006, 311(5762), 864-8).” for “Corticosterone-induced depression.”, “1H.” for “1A.”

The conditions of data set [12]: blood after 3 weeks of treatment, corticosterone model; means ± SEM (n = 6). The method, then: as §2
Blood parameter evaluation. Blood was collected in lithium heparin after the 3 weeks of treatment. Hemograms were performed with a Siemens ADVIAZ 120 apparatus. For biochemistry, blood was centrifuged at 2000 g for 10 min at +4° C. and supernatant was analyzed with a COBAS 6000 (Roche) apparatus.

The subject of data set [13] is autophagy and proteasome pathways in the brain. As to the kind of experiment: Toxicity: cell death pathways in the brain, Western blots. Conditions: quantitative Western blot, prefrontal cortex and hippocampus, corticosterone model. The method, then:
as §2
Cell death pathways in the brain—Western blots. […] Samples were homogenized by sonication in 2 vol of ice-cold phosphate-buffered saline containing 1% Triton X-100, protease inhibitors (Complete Protease Inhibitor Cocktail, Roche Diagnostics, Basel, Switzerland) and phosphatase inhibitors (Phosphatase Inhibitor Cocktail 3; Sigma-Aldrich). Protein concentrations were determined by Bradford's method. Proteins samples (15 μg) suspended in NuPage LDS sample buffer (Invitrogen, Carlsbad, Calif., USA) were separated by Bis-Tris sodium dodecyl sulfate polyacrylamide gel electrophoresis (10% gels) and transferred onto nitrocellulose membranes (Invitrogen). Transfer efficacy was controlled by Ponceau S staining. Unspecific binding sites were blocked in Tris-buffered saline containing 0.1% Tween-20 and 5% nonfat milk and membranes were immunoprobed with antibodies against β-actin ( 1/2500) and β-catenin ( 1/300) from Sigma-Aldrich or LC3B ( 1/5000) from Abcam. Membranes were incubated with infrared-labeled secondary antibodies (IRDye 700DX and IRDye 800CW; 1/5000; Rockland, Gilbertsvillle, Pa., USA). Immunoblotting was quantified with the Odyssey Infrared Imaging System and Application Software version 3.0 (LI-COR Biosciences, Lincoln, Nebr., USA).

`CC(C)N1/C(=C\c2cc[n+](C(C)C)c3ccccc23)C=Cc2ccccc21` [Compound D24, disprocynium 24]: in data set [1], the inhibition constant (Ki) was 14 nM. In data set [2], the “inhibition of α1-adrenoreceptors” value is given as “inhibits”. Further, the “inhibition of α2-adrenoreceptors” value in data set [3] is listed as “inhibits”. Besides, in [4], the “hypotensive effects (blood pressure)” value is given as “decreasing blood pressure markedly”.
`CNCCC(Oc1ccc(C(F)(F)F)cc1)c1ccccc1` (stereo not shown) [fluoxetine, reference compound]: the coat state entry in [5] is given as “improved coat state at both time points”. In [6] (11 days of treatment), the sucrose preference result is on record as “but not fluoxetine alone, significantly increased sucrose preference at 11 days”. In addition, the sucrose preference result in data set [6] (21 days of treatment) is recorded as “significantly increased sucrose preference at 21 days”. Further, in data set [7], the “latency to enter the open zone of the elevated O-maze” value is recorded as “decreased the latency to enter this zone” and the “time in the open zone of the elevated O-maze” value is on record as “increased the time in the open zone”. Moreover, in data set [8] (11 days of treatment), the “interaction time in social interaction test” value is on record as “significant effects on interaction time”. Also, the “interaction time in social interaction test” value in data set [8] (21 days of treatment) was “significant effects on interaction time”. Besides, the “locomotor activity at the periphery of the open field” value in data set [9] is on record as “significant effect”. Further, in [10], the effect on weight result is on record as “no significant effect”. Also, in data set [11], the “reversal of social aversion (time in interaction zone with target)” value is reported as “reversed only by fluoxetine”. In data set [12], this molecule returned an ALP of 47.4 ± 6.2 U/L, an ALT of 75.1 ± 12.4 U/L, an AST of 584.2 ± 87.6 U/L and a Creatinine of 0.5 ± 0.04 mg/dL. In [12], this molecule came in with a Hematies of 8.5 ± 0.3 T/L, a Leucocytes of 2.99 ± 0.08 g/L, a Platelets of 357 ± 57.2 and a Total bilirubin of 0.12 ± 0.01 mg/dL. In data set [12], this molecule gave a Urea of 64.2 ± 4.1 mg/dL. Moreover, in data set [13], the LC3II/LC3I ratios entry is on record as “comparable LC3II/LC3I ratios” and the β-catenin levels entry is “comparable”.
